Test results: patent publication US20070004805A1, “Process for preparation of liquid dosage form containing sodium 4-phenylbutyrate” (Navinta LLC, priority 2005, published 2007)

Experiments:
[1] = solubility / achievable concentration of sodium 4-phenylbutyrate in water; format: physicochemical
Experimental: In another embodiment, this invention provides a process of preparing a supersaturated solution of sodium 4-phenylbutyrate in water by adding sufficient water to a known quantity of sodium 4-phenylbutyrate at an elevated temperature of about 30° to about 80° C. to produce a concentration of about 600 mg/mL.
As described in more detail below, this invention describes a process of preparing a highly concentrated solution of sodium 4-phenylbutyrate, having a concentration 500 mg/mL in water by dissolving 5 g of sodium 4-phenylbutyrate in about 3.5 mL water to yield a solution volume of about 10 mL. The temperature can be room temperature (25° C.) or an elevated temperature, preferably in the range of up to about 80° C. We found it is more difficult to make this solution at room temperature, but the solution can be made at a higher temperature and then cooled to room temperature without precipitating resulting. […] Therefore, due to likely micelle formation of sodium 4-phenylbutyrate (which we term the self-associated polymeric form), the high concentration of about 500 mg/mL can be achieved in solution. […] This novel invention thus provides a dosage form better able to help the patients presently administered with a high volume dosage of sodium 4-phenylbutyrate. […]

[2] = cold storage of the highly concentrated aqueous solution (freezing / precipitation); format: physicochemical
Experimental: As described in more detail below, this invention describes a process of preparing a highly concentrated solution of sodium 4-phenylbutyrate, having a concentration 500 mg/mL in water by dissolving 5 g of sodium 4-phenylbutyrate in about 3.5 mL water to yield a solution volume of about 10 mL. The temperature can be room temperature (25° C.) or an elevated temperature, preferably in the range of up to about 80° C. We found it is more difficult to make this solution at room temperature, but the solution can be made at a higher temperature and then cooled to room temperature without precipitating resulting. […] Therefore, due to likely micelle formation of sodium 4-phenylbutyrate (which we term the self-associated polymeric form), the high concentration of about 500 mg/mL can be achieved in solution. […] This novel invention thus provides a dosage form better able to help the patients presently administered with a high volume dosage of sodium 4-phenylbutyrate. This invention is not intended to be limited by this discussion of micellar phases, or the presence or absence of other high concentration phases (such as sponge or L3, worm-like micelles, sheets and other laminar phases) that may be formed depending on the particular processing conditions and/or materials used. In the follow description the term “solution” is used without regard to whether a micellar phase is present.
About 160 g of sodium 4-phenylbutyrate was transferred to a 250 mL volumetric flask to which was then added about 90 mL of water and agitated with heating at a temperature 70° C. to dissolve. The mixture was cooled to 25° C. and 0.5 g of sodium benzoate was added and mixed well. This solution was compounded to 250 mL with water.

high concentration achieved in solution ([1]; in water, made at room temperature (25° C.) or up to about 80° C., then cooled without precipitation): about 500 mg/mL
maximum drug concentration achieved in the formulation ([1]; supersaturated solution in aqueous medium): about 700 mg/mL
freezing of the solution ([2]; 600 mg/mL solution at 0° C.): does not freeze
freezing or precipitation upon storage ([2]; about 500 mg/mL solution, 0° C. for two days): did not freeze or precipitate out
precipitation on further cooling ([2]; about 500 mg/mL solution, cooled to −4° C.): precipitation observed
SMILES: O=C([O-])CCCc1ccccc1.[Na+] [sodium 4-phenylbutyrate]
